Experimental data published in PubChem BioAssay (NCI).
Values joined by “and” are separate entries in the source; they are usually repeats but may differ in a detail not shown here. Equal entries are not always repeated.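 Tested at 5 concentrations; 48 h exposure; 96-well plates; endpoints linearly interpolated, else capped at highest concentration. GI50 = concentration required for 50% inhibition of growth. TGI: concentration producing complete growth inhibition.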

What was measured:
Assay in all cases: inhibition of tumour cell growth, NCI panel, 48 h
[1] = tested on: SR leukemia
[2] = tested on: NCI-H23 lung
[3] = tested on: LOX IMVI melanoma
[4] = tested on: SF-268 CNS
[5] = tested on: UO-31 renal
[6] = tested on: EKVX NSCLC
[7] = tested on: CAKI-1 renal
[8] = tested on: TK-10 renal
[9] = tested on: OVCAR-3 ovarian
[10] = tested on: SNB-19 CNS

## O=C(O)c1c[nH]c2c(ccc3[nH]cc(C(=O)O)c(=O)c32)c1=O
[1]
  TGI: > 100 µM
[2]
  TGI: > 100 µM
[3]
  TGI: > 100 µM
[4]
  TGI: > 100 µM
[5]
  TGI: > 100 µM
[6]
  TGI: > 100 µM
[7]
  TGI: > 100 µM
[8]
  TGI: > 100 µM
[9]
  TGI: > 100 µM
[10]
  TGI: > 100 µM

## Cc1cc(Cl)ccc1Nc1nc2c(s1)C(=O)c1ccccc1C2=O
[1]
  TGI: 10.8 µM
[2]
  TGI: 3.96 µM
[3]
  TGI: 3.12 µM
[4]
  TGI: 11.3 µM
[5]
  TGI: 11.6 µM
[6]
  TGI: 21.4 µM
[7]
  TGI: 20.3 µM
[8]
  TGI: 33.4 µM
[9]
  TGI: 4.6 µM
[10]
  TGI: 16.3 µM

## COc1ccc(/C=C/C(=O)c2ccccc2)cc1OC
[1]
  TGI: > 100 µM and 58.3 µM
[2]
  GI50: 15.8 µM
  TGI: 50.1 µM and 41.3 µM
[3]
  GI50: 3.32 µM
  TGI: 28.1 µM and 14.6 µM
[4]
  GI50: 19.7 µM
  TGI: 36.7 µM and 64.9 µM
[5]
  TGI: 27.2 µM and 27.3 µM
[6]
  GI50: 17.7 µM
  TGI: 28.7 µM and 35.6 µM
[7]
  GI50: 14.1 µM
  TGI: 38.2 µM and 35.6 µM
[8]
  GI50: 13.6 µM
  TGI: 32 µM and 27.8 µM
[9]
  GI50: 7.38 µM
  TGI: 25.3 µM and 26.8 µM
[10]
  TGI: 24.6 µM and 26.7 µM

## Clc1ccc(Nc2ncnc3c2sc2ncccc23)c(Cl)c1
[1]
  GI50: < 0.0187 µM
  TGI: > 100 µM
[2]
  GI50: < 0.01 µM
  TGI: 1.47 µM
[3]
  GI50: 0.0214 µM
  TGI: > 100 µM
[4]
  GI50: 0.0246 µM
  TGI: > 100 µM
[5]
  GI50: < 0.01 µM
  TGI: 4.32 µM
[6]
  GI50: 0.0826 µM
  TGI: > 100 µM
[7]
  GI50: < 0.0107 µM
  TGI: > 33.9 µM
[8]
  GI50: > 100 µM
  TGI: > 100 µM
[9]
  GI50: 1 µM
  TGI: > 100 µM
[10]
  GI50: < 0.0121 µM
  TGI: > 100 µM

## COC(=O)[C@H](C)[C@@H]1CC[C@](C)(CCC2=C(C)CCCC2(C)C)OO1
[1]
  TGI: > 25 µM
[2]
  TGI: > 25 µM
[3]
  TGI: > 25 µM
[4]
  TGI: > 25 µM
[5]
  TGI: > 25 µM
[6]
  TGI: > 25 µM
[7]
  TGI: > 25 µM
[8]
  TGI: > 25 µM
[9]
  TGI: > 25 µM
[10]
  TGI: > 25 µM

## COc1ccc2c(c1)CC1N(C)CCC13CCCCC23 (configuration not stated)
[1]
  TGI: > 100 µM
[2]
  TGI: > 100 µM
[3]
  TGI: > 100 µM
[4]
  TGI: > 100 µM
[5]
  TGI: > 100 µM
[6]
  TGI: > 100 µM
[7]
  TGI: > 100 µM
[8]
  TGI: > 100 µM
[9]
  TGI: > 100 µM
[10]
  TGI: > 100 µM

## COC(=O)c1cc2c(nc1C)-c1ccccc1OS2(=O)=O
[1]
  TGI: > 100 µM
[2]
  TGI: > 100 µM
[3]
  TGI: > 100 µM
[4]
  TGI: > 100 µM
[5]
  TGI: > 100 µM
[6]
  TGI: > 100 µM
[7]
  TGI: > 100 µM
[8]
  TGI: > 100 µM
[9]
  TGI: > 100 µM
[10]
  TGI: > 100 µM
